Experimental data reported in patent US20230136569A1, “USE OF NMN TO REDUCE IMMUNODEPRESSION AND IMMUNOSENESCENCE” (NUVAMID SA, priority 2020, published 2023).

Legend:
Type in all cases: in vivo
[1] = Weight gain and water consumption of mice given the compounds in drinking water; conditions: old mice (15 months), 500 mg/kg p.o. in drinking water; compared with non-treated mice of 15 months (FIG. 1A)
Protocol: (§1) The administering of β-NMN at 500 mg/kg, of α-NMN at 500 mg/kg and of the vehicle (water) was obtained via oral route (p.o) in the drinking water to young and old mice. The solutions were prepared by dissolving the powder of β-NMN or α-NMN in the vehicle (water). The solution was used at ambient temperature for no more than 2 days and was freshly prepared for each new administration. The mice were weighed each week to adapt the dose of the compound to be administered. Throughout the entire phase, a standard food diet and tap water were provided ad libitum. The study comprised 4 groups each having 6 mice: • Group 1: young mice (aged 10 weeks)+drinking water (vehicle) • Groupe 2: old mice (aged 15 months)+drinking water (vehicle) • Group 3: old mice (aged 15 months)+compound I-B (alpha-NMN) in the drinking water • Group 4: old mice (aged 15 months)+compound I-A (beta-NMN) in the drinking water The water consumption of the mice was assessed per cage every other day. The mice were weighed every week. The mice in Group 3 were sacrificed after 4 weeks for organ collection and characterisation of T cell function. The mice in Group 4 were sacrificed after 6 weeks for organ collection and characterisation of T cell function. On the day of sacrifice, the mice were anaesthetised with Vetoflurane (isoflurane) and blood samples were taken from the retroorbital sinus. […]

[2] = tested on: T cells present in the spleen; experiment: Flow cytometry of CD4+ and CD8+ T cells in the spleen of old mice; conditions: 500 mg/kg p.o.; for number of CD4+ effector T cells: α-NMN 4 weeks, β-NMN 6 weeks, compared with Group 3 (so in the source)
Protocol: The administering of β-NMN at 500 mg/kg, of α-NMN at 500 mg/kg and of the vehicle (water) was obtained via oral route (p.o) in the drinking water to young and old mice. The solutions were prepared by dissolving the powder of β-NMN or α-NMN in the vehicle (water). The study comprised 4 groups each having 6 mice: • Group 1: young mice (aged 10 weeks)+drinking water (vehicle) • Groupe 2: old mice (aged 15 months)+drinking water (vehicle) • Group 3: old mice (aged 15 months)+compound I-B (alpha-NMN) in the drinking water • Group 4: old mice (aged 15 months)+compound I-A (beta-NMN) in the drinking water The water consumption of the mice was assessed per cage every other day. The mice were weighed every week. The mice in Group 3 were sacrificed after 4 weeks for organ collection and characterisation of T cell function. The mice in Group 4 were sacrificed after 6 weeks for organ collection and characterisation of T cell function. On the day of sacrifice, the mice were anaesthetised with Vetoflurane (isoflurane) and blood samples were taken from the retroorbital sinus. The blood was incubated for 30 minutes at ambient temperature and then centrifuged at 1300 g for 10 minutes. After sacrificing of the mice, the spleen, thymus, and bone marrow of each animal were removed. The thymus was weighed and measured to evaluate involution thereof. For illustration purposes, photos of the thymus were taken on 5 animals per group. The thymus was divided into two parts: one part was treated with formol for histological examination. The second part was treated for characterisation of the immune cells. For characterisation of the cells, the thymus and spleen were crushed through a sieve of […] over a 50 mL tube with a syringe plunger. The bone marrow was rinsed with RPMI culture medium using a needle and syringe. The cell suspension was then centrifuged at 400 g for 5 minutes at 4° C. Lysis of the red blood cells was also performed before the cell count and use thereof for cytometry. The isolated cells of the spleen, thymus and bone marrow were marked with antibodies in accordance with the following tables to identify the proportion of effector and memory naive T and B cells. The following T cells of the spleen were also examined for characterisation as a function of the combination of proteins on the surface thereof: [table] Measured parameters: The results of flow cytometry are expressed in number or as a proportion of cells per organ. The weight of the thymus is expressed in grams.

[3] = tested on: CD4+ T cells producing IFNγ or IL10; experiment: Cytokine production by splenocytes stimulated with anti-CD3/CD28 beads for 18 h; conditions: splenocytes of treated old mice, anti-CD3/CD28 beads 18 h (FIG. 10A)
Protocol: The total splenocytes were stimulated with beads coated with anti-CD3/CD28 for 18 h. As shown in FIGS. 10A and 10B, ageing reduced the proportion of cells producing IFNγ and IL10 when simulated with beads coated with anti-CD3/CD28.

[4] = tested on: old mice (aged 15 months); experiment: Study of the effects on immunosenescence in old mice (overall conclusion); conditions: old mice (15 months), 500 mg/kg p.o. in drinking water; concluding statement
Protocol: as §1, with “[…] The thymus was weighed” for “On the day of sacrifice, the mice were anaesthetised with Vetoflurane (isoflurane)”, “measured to evaluate involution thereof.” for “blood samples were taken from the retroorbital sinus.”

NC(=O)c1ccc[n+]([C@@H]2O[C@H](COP(=O)([O-])O)[C@@H](O)[C@H]2O)c1 (stereo in doubt) [I-A, nicotinamide mononucleotide]
weight gain of the treated mice [1]: did not significantly increase the weight
number of CD4+ memory T cells in the spleen ([2]; 6 weeks, compared with the other groups (FIG. 7B)): increase in the memory T cells that is significant
total number of CD4+ T cells in the spleen ([2]; 6 weeks, compared with the other groups of mice (FIG. 7A)): significantly increased
number of CD4+ effector T cells [2]: increase in the number of CD4+ effector T cells
response to stimulation: proportion of cells producing IFNγ [3]: lack of response
signs of immunosenescence [4]: significant decrease in the signs of immunosenescence

NC(=O)c1ccc[n+]([C@H]2O[C@H](COP(=O)([O-])O)[C@@H](O)[C@H]2O)c1 (stereo in doubt) [I-B, alpha nicotinamide mononucleotide]
weight gain of the treated mice [1]: did not significantly increase the weight
number of naive CD8+ T cells in the spleen ([2]; 4 weeks (FIG. 8A)): does not modify the number of naive CD8+ T cells
levels of effector CD8+ T cells in the spleen ([2]; 4 weeks (FIG. 8B)): restoring of the levels of effector CD8+ T cells
levels of memory CD8+ T cells in the spleen ([2]; 4 weeks (FIG. 8C as printed)): restoring of the levels
levels of effector memory CD8+ T cells in the spleen ([2]; 4 weeks (FIG. 8D as printed)): restoring of the levels
number of CD4+ effector T cells [2]: increase in the number of CD4+ effector T cells
response to stimulation: proportion of cells producing IFNγ [3]: the response to stimulation was lower
signs of immunosenescence [4]: significant decrease in the signs of immunosenescence
